Results published in US4031244A, “Pharmaceutical compositions containing a 1-(2,6-dimethyl-phenoxy)-2-amino-alkane and method of use” (priority 1966, dated 1977).

Legend:
[1] = test system: warmblooded animals, such as rats and mice; assay: Pharmacodynamic properties (anticonvulsive, antiarrhythmic, sedative side effects) in warm-blooded animals; assay type: in vivo; conditions: specific compounds
mouse = assay: Anticonvulsive activity by the electroshock method of Tooman et al; assay type: in vivo; conditions: Mus musculus, read-out: Anticonvulsive ED50
Source text: (§1) The anticonvulsive activity of the compounds of the formula I and their non-toxic acid addition salts, as well as of certain isomers and homologs described in the prior art, was as certained by the electroshock method of Tooman et al, J. Neurophysiol.

in vivo = conditions: po, mouse
Source text: as §1

[2] = Anticonvulsive activity by the electroshock method of Tooman et al; assay type: in vivo, mouse; conditions: in vivo; mouse; LD50 / ED50; read-out: Therapeutic ratio LD50 ED50
Source text: as §1

With CCCC(N)COc1c(C)cccc1C (stereo not shown) [1-(2',6'-dimethyl-phenoxy)-2-amino-pentane] the effectiveness as anticonvulsives [1] was “especially effective”.
In the case of Cc1cccc(C)c1OCC(C)N (stereo not shown) [A, 1-(2',6'-dimethyl-phenoxy)-2-amino-propane], the effectiveness as anticonvulsives [1] is reported as “especially effective” and the ED50 (mouse) is reported as 23 mg/kg.
Compound CNCCOc1c(C)cccc1C [B, n-methyl-2-(2',6'-xylyloxy)-ethylamine] has an LD50 (in vivo) of 216 mg/kg, an ED50 (mouse) of 80 mg/kg and a selectivity ratio [2] of 2.7.
Compound Cc1cccc(C)c1OCCN [C, 2-(2',6'-xylyloxy)-ethylamine] has an LD50 (in vivo) of 740 mg/kg, an ED50 (mouse) of 115 mg/kg and a selectivity ratio [2] of 6.4.
For Cc1cccc(C)c1OCCCN [D, 3-(2',6'-xylyloxy)-propylamine], the LD50 (in vivo) was 580 mg/kg, the ED50 (mouse) was 216 mg/kg and the selectivity ratio [2] was 2.7.
For Cc1cccc(C)c1OCC(C)N.Cl (stereo not shown) [Example 1, 1-(2',6'-dimethyl-phenoxy)-2-amino-propane hydrochloride], the effectiveness as anticonvulsives [1] was “especially effective”.
